In ChEMBL document CHEMBL6071125, “Biological function and small molecule inhibitors of histone deacetylase 11” (Eur J Med Chem, 2024):
pIC50: −log10 of the molar value. Square brackets hold non-standard residues; d marks the D form. Peptide text beside a SMILES is read from it. * marks the point of attachment. Asu = N[C@@H](CCCCCC(=O)O)C(=O)O; dPip = O=C(O)[C@H]1CCCCN1; NHOH = ON*

Key:
[1] = biological target: T1, Histone deacetylase 11 (Homo sapiens) (UniProt Q96DB2); experiment: Inhibition of HDAC11 (unknown origin) expressed in HEK293T cells at 100 uM relative to control; format: cell-based
T1 sequence (whole entry): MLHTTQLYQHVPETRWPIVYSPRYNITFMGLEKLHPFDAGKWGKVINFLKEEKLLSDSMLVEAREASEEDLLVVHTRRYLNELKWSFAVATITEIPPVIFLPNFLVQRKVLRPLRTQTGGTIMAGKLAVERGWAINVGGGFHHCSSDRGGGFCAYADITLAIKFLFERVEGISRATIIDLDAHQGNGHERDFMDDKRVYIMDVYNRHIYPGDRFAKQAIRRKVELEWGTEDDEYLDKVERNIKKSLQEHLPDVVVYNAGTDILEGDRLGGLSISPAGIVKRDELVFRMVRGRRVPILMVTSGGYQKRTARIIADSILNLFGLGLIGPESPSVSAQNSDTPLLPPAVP

[2] = biological target: T2, Protein deacetylase HDAC6 (Homo sapiens, UniProt Q9UBN7); experiment: Inhibition of human recombinant HDAC6 using AMC-K(Ac)GL as substrate by fluorescence based assay
T2 sequence (Q9UBN7 whole entry): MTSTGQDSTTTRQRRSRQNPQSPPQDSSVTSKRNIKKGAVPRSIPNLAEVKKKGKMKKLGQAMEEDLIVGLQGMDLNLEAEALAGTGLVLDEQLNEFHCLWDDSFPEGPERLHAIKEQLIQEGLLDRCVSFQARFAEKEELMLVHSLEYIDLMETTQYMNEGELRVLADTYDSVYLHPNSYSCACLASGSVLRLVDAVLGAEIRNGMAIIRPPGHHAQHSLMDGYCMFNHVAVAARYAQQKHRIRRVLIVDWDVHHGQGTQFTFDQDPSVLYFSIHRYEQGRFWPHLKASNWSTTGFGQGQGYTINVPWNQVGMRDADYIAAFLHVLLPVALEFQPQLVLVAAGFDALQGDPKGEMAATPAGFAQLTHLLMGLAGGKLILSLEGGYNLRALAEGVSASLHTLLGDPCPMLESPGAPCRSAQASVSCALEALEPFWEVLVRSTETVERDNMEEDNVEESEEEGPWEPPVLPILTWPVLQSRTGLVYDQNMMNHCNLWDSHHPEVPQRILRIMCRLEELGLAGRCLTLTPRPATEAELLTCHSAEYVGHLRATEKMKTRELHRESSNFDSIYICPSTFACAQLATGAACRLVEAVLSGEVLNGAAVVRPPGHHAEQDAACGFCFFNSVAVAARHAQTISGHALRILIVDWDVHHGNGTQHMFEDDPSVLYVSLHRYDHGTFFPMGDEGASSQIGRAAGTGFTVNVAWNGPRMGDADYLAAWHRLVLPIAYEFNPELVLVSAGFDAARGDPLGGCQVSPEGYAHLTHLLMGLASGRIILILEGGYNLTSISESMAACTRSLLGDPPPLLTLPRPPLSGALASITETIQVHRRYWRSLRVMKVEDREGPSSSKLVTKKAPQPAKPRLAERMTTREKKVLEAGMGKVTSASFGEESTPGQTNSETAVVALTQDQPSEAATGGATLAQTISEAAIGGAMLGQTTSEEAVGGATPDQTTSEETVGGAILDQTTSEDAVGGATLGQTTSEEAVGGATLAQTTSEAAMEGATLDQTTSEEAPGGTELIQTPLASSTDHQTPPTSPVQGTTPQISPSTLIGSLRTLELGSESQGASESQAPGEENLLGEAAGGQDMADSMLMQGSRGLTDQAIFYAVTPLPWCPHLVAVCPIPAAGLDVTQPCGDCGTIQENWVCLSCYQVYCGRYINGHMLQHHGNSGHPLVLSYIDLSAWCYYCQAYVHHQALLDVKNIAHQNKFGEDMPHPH

Histone deacetylase 11 [3] = biological target: T3, Histone deacetylase 11 (Homo sapiens, UniProt Q96DB2); experiment: Inhibition of full length human recombinant HDAC11 using FAM-RHKK(tri-fluor-Ac)-NH2 as substrate by electrophoretic mobility shift assay
T3 sequence (Q96DB2 whole entry): T1 sequence (whole entry)

Histone deacetylase 11 [4] = biological target: T3, Histone deacetylase 11; experiment: Inhibition of HDAC11 (unknown origin)
Histone deacetylase 8 = biological target: T4, Histone deacetylase 8 (Homo sapiens, UniProt Q9BY41); experiment: Inhibition of human Flag-tagged HDAC8 expressed in HEK293T cells by fluorescence based analysis; format: cell-based
T4 sequence (Q9BY41 whole entry): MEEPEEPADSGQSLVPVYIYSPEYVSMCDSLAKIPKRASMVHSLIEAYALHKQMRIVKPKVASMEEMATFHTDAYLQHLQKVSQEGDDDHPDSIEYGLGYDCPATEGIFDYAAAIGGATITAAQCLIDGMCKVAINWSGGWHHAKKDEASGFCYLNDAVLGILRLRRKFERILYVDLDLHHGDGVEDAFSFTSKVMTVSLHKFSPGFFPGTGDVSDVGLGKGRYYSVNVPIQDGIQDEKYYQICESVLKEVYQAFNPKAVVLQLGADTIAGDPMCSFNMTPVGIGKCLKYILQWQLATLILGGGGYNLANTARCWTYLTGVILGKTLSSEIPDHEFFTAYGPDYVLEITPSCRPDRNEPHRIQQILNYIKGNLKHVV

Histone deacetylase 11 [5] = biological target: T3, Histone deacetylase 11; experiment: Inhibition of full length N-terminal GST-tagged human HDAC11

Row | SMILES | inhibition [1] [%] | other results
1 | O=C(O)C(F)(F)F | < 5 | 
2 | Cn1c(/C=C/C(=O)NO)ccc1/C=C/C(=O)c1cccc(F)c1 |  | pIC50 [2]: 5.08
3 | CCCCCCCCCCCCCCCC(=O)O [PALMITIC ACID] |  | pIC50 (Histone deacetylase 11 [3]): 3.05
4 | CC(=O)O | < 10 | 
5 | CCC(=O)O | < 10 | 
6 | CCCCCC(=O)O | < 20 | 
7 | O=C(O)/C=C/c1ccc(-c2ccc(O)c(C34CC5CC(CC(C5)C3)C4)c2)cc1 [ADAROTENE] |  | pIC50 (Histone deacetylase 11 [4]): < 5.00
8 | CCCCCCCCCCCCCCCCNNC(=O)c1ccc(N(C)C)cc1 |  | pIC50 (Histone deacetylase 8): < 4.00
9 | CCCCCCCC(=O)O | < 20 | 
10 | CC[C@H](C)[C@@H]1NC(=O)[C@H](Cc2c[nH]c3ccccc23)NC(=O)[C@H](CCCCCC(=O)NO)NC(=O)[C@H]2CCCCN2C1=O (cyclo([Asu](NHOH)WI[dPip])) |  | pIC50 (Histone deacetylase 11 [5]): 8.00
11 | O=C(O)CCCC[C@@H]1SC[C@@H]2NC(=O)N[C@@H]21 | < 20 | 
12 | CCCC(=O)O | < 5 | 
13 | CCCCCCCCCCCCCCCCNNC(=O)c1cccs1 |  | pIC50 (Histone deacetylase 8): < 4.00
14 | O=C(O)CCCC[C@@H]1CCSS1 | < 20 | 
